Reference: US5292733A, “Cephalosporin compounds” (Lucky Limited, priority 1991, dated 1994)
Values after ≈ are worked out from the molar mass of the structure shown.

Experiments:
Test in all cases: Antibacterial activity MIC, two-fold agar dilution
Type in all cases: cell-based
[1] = system: Enterobacter aerogenes ATCC 29751; details: Klebsiella aerogenes, ATCC29751; Enterobacter aerogenes ATCC 29751; Muller-Hinton agar, 37° C., 20 hours; read-out: Antibacterial Activity MIC
How it was run: (§1)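 Incubation lasted 20 hours at 37° C. after 2 μl of each standard strain (10^7 CFU per ml) was placed on Muller-Hinton agar carrying two-fold serially diluted compound; MIC was then taken.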

[2] = system: Klebsiella pneumoniae ATCC 10031; details: ATCC10031; Klebsiella pneumoniae ATCC 10031; Muller-Hinton agar, 37° C., 20 hours; read-out: Antibacterial Activity MIC
How it was run: as §1

[3] = system: Salmonella typhimurium ATCC 14028; details: Salmonella enterica; Salmonella typhimurium ATCC 14028; Muller-Hinton agar, 37° C., 20 hours; read-out: Antibacterial Activity MIC
How it was run: as §1

[4] = system: Shigella sonnei ATCC 11060; details: ATCC11060, Muller-Hinton agar, 37° C., 20 hours
How it was run: as §1

[5] = system: Acinetobacter calcoaceticus ATCC 15473; details: ATCC15473; Acinetobacter calcoaceticus ATCC 15473; Muller-Hinton agar, 37° C., 20 hours; read-out: Antibacterial Activity MIC
How it was run: as §1

[6] = system: Staphylococcus aureus ATCC 6538p; details: ATCC6538P; Staphylococcus aureus ATCC 6538p; Muller-Hinton agar, 37° C., 20 hours; read-out: Antibacterial Activity MIC
How it was run: as §1

[7] = system: Pseudomonas aeruginosa ATCC 27853; details: ATCC27853; Pseudomonas aeruginosa ATCC 27853; Muller-Hinton agar, 37° C., 20 hours; read-out: Antibacterial Activity MIC
How it was run: as §1

[8] = system: Proteus mirabilis ATCC 25933; details: ATCC25933; Proteus mirabilis ATCC 25933; Muller-Hinton agar, 37° C., 20 hours; read-out: Antibacterial Activity MIC
How it was run: as §1

[9] = system: Pseudomonas aeruginosa ATCC 25619; details: ATCC25619; Pseudomonas aeruginosa ATCC 25619; Muller-Hinton agar, 37° C., 20 hours; read-out: Antibacterial Activity MIC
How it was run: as §1

[10] = system: Streptococcus faecalis ATCC 29212; details: Enterococcus faecalis, ATCC29212; Streptococcus faecalis ATCC 29212; Muller-Hinton agar, 37° C., 20 hours; read-out: Antibacterial Activity MIC
How it was run: as §1

[11] = system: Providencia rettgeri ATCC 9250; details: ATCC9250, Muller-Hinton agar, 37° C., 20 hours
How it was run: as §1

[12] = system: Staphylococcus epidermidis ATCC 12228; details: ATCC12228; Staphylococcus epidermidis ATCC 12228; Muller-Hinton agar, 37° C., 20 hours; read-out: Antibacterial Activity MIC
How it was run: as §1

[13] = system: Bacillus megaterium ATCC 9885; details: Priestia megaterium, ATCC9885; Bacillus megaterium ATCC 9885; Muller-Hinton agar, 37° C., 20 hours; read-out: Antibacterial Activity MIC
How it was run: as §1

[14] = system: Citrobacter freundii ATCC 8090; details: ATCC8090; Citrobacter freundii ATCC 8090; Muller-Hinton agar, 37° C., 20 hours; read-out: Antibacterial Activity MIC
How it was run: as §1

[15] = system: Serratia marcescens ATCC 27117; details: ATCC27117; Serratia marcescens ATCC 27117; Muller-Hinton agar, 37° C., 20 hours; read-out: Antibacterial Activity MIC
How it was run: as §1

[16] = system: Shigella flexneri ATCC 11836; details: ATCC11836, Muller-Hinton agar, 37° C., 20 hours
How it was run: as §1

[17] = system: Micrococcus luteus ATCC 9341; details: ATCC9341; Micrococcus luteus ATCC 9341; Muller-Hinton agar, 37° C., 20 hours; read-out: Antibacterial Activity MIC
How it was run: as §1

[18] = system: Enterobacter cloacae ATCC 27508; details: ATCC27508; Enterobacter cloacae ATCC 27508; Muller-Hinton agar, 37° C., 20 hours; read-out: Antibacterial Activity MIC
How it was run: as §1

[19] = system: Bacillus cereus ATCC 11778; details: ATCC11778; Bacillus cereus ATCC 11778; Muller-Hinton agar, 37° C., 20 hours; read-out: Antibacterial Activity MIC
How it was run: as §1

[20] = system: Escherichia coli ATCC 10536; details: ATCC10536, Muller-Hinton agar, 37° C., 20 hours
How it was run: as §1

[21] = system: Staphylococcus aureus ATCC 10537; details: ATCC10537; Staphylococcus aureus ATCC 10537; Muller-Hinton agar, 37° C., 20 hours; read-out: Antibacterial Activity MIC
How it was run: as §1

[22] = system: Pseudomonas aeruginosa ATCC 10145; details: ATCC10145; Pseudomonas aeruginosa ATCC 10145; Muller-Hinton agar, 37° C., 20 hours; read-out: Antibacterial Activity MIC
How it was run: as §1

[23] = system: Morganella morganii ATCC 8076h; details: ATCC8076H, Muller-Hinton agar, 37° C., 20 hours
How it was run: as §1

[24] = system: Proteus vulgaris ATCC 6059; details: ATCC6059; Proteus vulgaris ATCC 6059; Muller-Hinton agar, 37° C., 20 hours; read-out: Antibacterial Activity MIC
How it was run: as §1

[25] = system: Escherichia coli ATCC 25922; details: ATCC25922, Muller-Hinton agar, 37° C., 20 hours
How it was run: as §1

SMILES | MIC [1] [µg/mL] | MIC [2] [µg/mL] | MIC [3] [µg/mL] | MIC [4] [µg/mL] | MIC [5] [µg/mL] | MIC [6] [µg/mL] | MIC [7] [µg/mL] | MIC [8] [µg/mL] | MIC [9] [µg/mL] | MIC [10] [µg/mL] | MIC [11] [µg/mL] | MIC [12] [µg/mL] | MIC [13] [µg/mL] | MIC [14] [µg/mL] | MIC [15] [µg/mL] | MIC [16] [µg/mL] | MIC [17] [µg/mL] | MIC [18] [µg/mL] | MIC [19] [µg/mL] | MIC [20] [µg/mL] | further results
CC[n+]1c(SCC2=C(C(=O)[O-])N3C(=O)[C@@H](NC(=O)/C(=N\OC(C)(C)C(=O)O)c4csc(N)n4)[C@H]3SC2)cc(N)nc1N [Compound I-2, (6R,7R)-7-[(Z)-2-(2-aminothiazol-4-yl)-2-(carboxyprop-2-oxyimino)acetamido]-3-(2,6-diamino-3-ethylpyrimidinium-4-yl)thiomethyl-3-cephem-4-carboxylate] | 1 (≈ 1.57 µM) | 0.031 (≈ 0.0486 µM) | 0.5 (≈ 0.784 µM) | 0.25 (≈ 0.392 µM) | 4 (≈ 6.27 µM) | 4 (≈ 6.27 µM) | 1 (≈ 1.57 µM) | 0.31 (≈ 0.486 µM) | 1 (≈ 1.57 µM) | > 128 | ≤ 0.008 | 1 (≈ 1.57 µM) | 0.25 (≈ 0.392 µM) | 0.13 (≈ 0.204 µM) | 0.13 (≈ 0.204 µM) | 0.031 (≈ 0.0486 µM) | 0.5 (≈ 0.784 µM) | 0.016 (≈ 0.0251 µM) | 64 (≈ 100 µM) | 0.063 (≈ 0.0988 µM) | MIC [21]: 4 µg/mL (≈ 6.27 µM); MIC [22]: 1 µg/mL (≈ 1.57 µM); MIC [23]: ≤ 0.008 µg/mL; MIC [24]: 0.13 µg/mL (≈ 0.204 µM); MIC [25]: 0.063 µg/mL (≈ 0.0988 µM)
C#CCO/N=C(\C(=O)N[C@@H]1C(=O)N2C(C(=O)[O-])=C(CSc3cc(N)[n+](C)c(N)n3)CS[C@H]12)c1csc(N)n1 [Compound I-14, (6R,7R)-7-[(Z)-2-(2-aminothiazol-4-yl)-2-(2-propyn-1-oxyimino)acetamido]-3-(2,6-diamino-1-methylpyrimidinium-4-yl)thiomethyl-3-cephem-4-carboxylate] | 0.5 (≈ 0.869 µM) | 0.016 (≈ 0.0278 µM) | 0.25 (≈ 0.434 µM) | 0.5 (≈ 0.869 µM) | 8 (≈ 13.9 µM) | 0.5 (≈ 0.869 µM) | 4 (≈ 6.95 µM) | 1 (≈ 1.74 µM) | 1 (≈ 1.74 µM) | 16 (≈ 27.8 µM) | ≤ 0.008 | 0.25 (≈ 0.434 µM) | 0.25 (≈ 0.434 µM) | 0.25 (≈ 0.434 µM) | 0.5 (≈ 0.869 µM) | 0.063 (≈ 0.109 µM) | 0.031 (≈ 0.0539 µM) | 0.016 (≈ 0.0278 µM) | 64 (≈ 111 µM) | 0.5 (≈ 0.869 µM) | MIC [21]: 0.5 µg/mL (≈ 0.869 µM); MIC [22]: 8 µg/mL (≈ 13.9 µM); MIC [23]: 0.016 µg/mL (≈ 0.0278 µM); MIC [24]: 1 µg/mL (≈ 1.74 µM); MIC [25]: 0.25 µg/mL (≈ 0.434 µM)
C[n+]1c(N)nc(N)nc1SCC1=C(C(=O)[O-])N2C(=O)C(NC(=O)/C(=N\OC(C)(C)C(=O)O)c3csc(N)n3)[C@H]2SC1 (stereo partly shown) [Compound I-23, 7-[(Z)-2-(2-aminothiazol-4-yl)-2-(2-carboxyprop-2-oxyimino)acetamido]-3-(4,6-diamino-1-methyl-1,3,5-triazinium-2-yl)thiomethyl-3-cephem-4-carboxylate] | 2 (≈ 3.2 µM) | 0.063 (≈ 0.101 µM) | 0.13 (≈ 0.208 µM) | 0.063 (≈ 0.101 µM) | 4 (≈ 6.4 µM) | 8 (≈ 12.8 µM) | 1 (≈ 1.6 µM) | 0.063 (≈ 0.101 µM) | 1 (≈ 1.6 µM) | > 128 | ≤ 0.008 | 2 (≈ 3.2 µM) | 0.5 (≈ 0.8 µM) | 0.13 (≈ 0.208 µM) | 0.13 (≈ 0.208 µM) | 0.063 (≈ 0.101 µM) | 1 (≈ 1.6 µM) | 0.031 (≈ 0.0496 µM) | 128 (≈ 205 µM) | 0.063 (≈ 0.101 µM) | MIC [21]: 2 µg/mL (≈ 3.2 µM); MIC [22]: 2 µg/mL (≈ 3.2 µM); MIC [23]: ≤ 0.008 µg/mL; MIC [24]: 0.063 µg/mL (≈ 0.101 µM); MIC [25]: 0.063 µg/mL (≈ 0.101 µM)
C[n+]1c(SCC2=C(C(=O)[O-])N3C(=O)[C@@H](NC(=O)/C(=N\OC(C)(C)C(=O)O)c4csc(N)n4)[C@H]3SC2)cc(N)nc1N [Compound I-1] | 2 (≈ 3.21 µM) | 0.031 (≈ 0.0497 µM) | 0.5 (≈ 0.802 µM) | 0.25 (≈ 0.401 µM) | 4 (≈ 6.41 µM) | 8 (≈ 12.8 µM) | 1 (≈ 1.6 µM) | 0.31 (≈ 0.497 µM) | 1 (≈ 1.6 µM) | > 128 | ≤ 0.008 | 2 (≈ 3.21 µM) | 0.25 (≈ 0.401 µM) | 0.13 (≈ 0.208 µM) | 0.13 (≈ 0.208 µM) | 0.031 (≈ 0.0497 µM) | 0.5 (≈ 0.802 µM) | 0.016 (≈ 0.0257 µM) | 128 (≈ 205 µM) | 0.13 (≈ 0.208 µM) | MIC [21]: 4 µg/mL (≈ 6.41 µM); MIC [22]: 2 µg/mL (≈ 3.21 µM); MIC [23]: ≤ 0.008 µg/mL; MIC [24]: 0.31 µg/mL (≈ 0.497 µM); MIC [25]: 0.13 µg/mL (≈ 0.208 µM)
